System: Wnt pathway
Assay: Wnt pathway Super-top flash (STF) reporter gene assay (primary assay)
Type: cell-based
Conditions: HEK293 STF cells co-cultured 1:1 with L Wnt3A cells; 48 h incubation; inhibition of luminescence signaling
Method: The primary assay is based on Wnt pathway Super-top flash (STF) reporter gene assay:
HEK293 STF stable clones (HEK293 cells stably transfected with “Super-Top Flash” TCF-luciferase reporter plasmid) were kept in complete culture medium (DMEM with 4 mM L-Gln, 1.5 g/L sodium bicarbonate and 4.5 g/L glucose containing 6 μg/mL Blasticidin and 10% FBS). L Wnt3A cells (CRL-2647, ATCC) were kept in DMEM (Gibico) containing 10% FBS (Hyclone). HEK293 STF and L Wnt3A cells were harvested when 90% confluence and cell suspension was mixed with a fixed ratio of 1:1 (HEK293 STF: L Wnt3A). 100 μL/well of mixed cells suspension was added to the 96-well-plate with final cell concentration of 12,000 cells/well and then cultured for an additional 24 hours before adding compounds.
Compounds were diluted in DMSO in sequence and then diluted with DMEM medium. 20 μL medium containing compound was added to the cells according to the pre-setting dose. Cell plates were incubated at 37° C. for an additional 48 hours.
50 μL luciferase solution (Bright-Glo, Promega) was added to each well […] the 48 h incubation. The plates were incubated at room temperature for 5 min under gentle shaking. Luminescence signaling was measured with a plate reader (PHERAstar FS, BMG). The IC50 (potency) of compounds was calculated based on the inhibition of luminescence signaling.

Cc1cc(-c2ccc(CNc3ncnc(-c4ccc5ccccc5c4)c3F)cc2)ccn1 [Compound A-1, 5-fluoro-N-(4-(2-methylpyridin-4-yl)benzyl)-6-(naphthalen-2-yl)pyrimidin-4-amine]
IC50: 1.4 nM

Cc1cc(-c2ccc(CNc3ncnc(-c4cnc5ccccc5c4)c3F)cc2)ccn1 [Compound A-2]
IC50: 2.9 nM

Cc1cc(-c2ccc(CNc3ncnc(-c4ccc5cccnc5c4)c3F)cc2)ccn1 [Compound A-3]
IC50: 36 nM

Cc1cc(-c2ccc(CNc3ncnc(-c4ccc5ncccc5c4)c3F)cc2)ccn1 [Compound A-4]
IC50: 0.3 nM

Cc1cc(-c2ccc(CNc3ncnc(-c4ccc5nc(C)ccc5c4)c3F)cc2)ccn1 [Compound A-5]
IC50: 2.1 nM

Cc1cc(-c2ccc(CNc3ncnc(-c4ccc5cnccc5c4)c3F)cc2)ccn1 [Compound A-6]
IC50: 4.7 nM

Cc1cc(-c2ccc(CNc3ncnc(-c4ccc5ccncc5c4)c3F)cc2)ccn1 [Compound A-7]
IC50: 7.4 nM

Cc1cc(-c2ccc(CNc3ncnc(-c4ccc5nccnc5c4)c3F)cc2)ccn1 [Compound A-8]
IC50: 1.5 nM

Cc1cc(-c2ccc(CNc3ncnc(-c4ccc5ncncc5c4)c3F)cc2)ccn1 [Compound A-9]
IC50: 2.8 nM

Cc1cc(-c2ccc(CNc3ncnc(-c4ccc5[nH]cnc5c4)c3F)cc2)ccn1 [Compound A-10]
IC50: 285 nM

Cc1cc(-c2ccc(CNc3ncnc(-c4ccc5nccn5c4)c3F)cc2)ccn1 [Compound A-11]
IC50: 1.6 nM

Cc1cc(-c2ccc(CNc3ncnc(-c4ccc5ncsc5c4)c3F)cc2)ccn1 [Compound A-12]
IC50: 0.3 nM

Cc1cc(-c2ccc(CNc3ncnc(-c4ccc5[nH]ncc5c4)c3F)cc2)ccn1 [Compound A-13]
IC50: 99 nM

Cc1cc(-c2ccc(CNc3ncnc(-c4ccc5nn(C)cc5c4)c3F)cc2)ccn1 [Compound A-14]
IC50: 5.9 nM

Cc1cc(-c2ccc(CNc3ncnc(-c4ccc5c(cnn5C)c4)c3F)cc2)ccn1 [Compound A-15]
IC50: 19 nM

Cc1cc(-c2ccc(CNc3ncnc(-c4ccc5c(c4)OCCO5)c3F)cc2)ccn1 [Compound A-16]
IC50: 27 nM

Cc1cc(-c2ccc(CNc3ncnc(-c4ccccc4)c3F)cc2)ccn1 [Compound A-17]
IC50: > 1000 nM

Cc1cc(-c2ccc(CNc3ncnc(-c4ccccc4Cl)c3F)cc2)ccn1 [Compound A-18]
IC50: 480 nM

Cc1cc(-c2ccc(CNc3ncnc(-c4cccc(Cl)c4)c3F)cc2)ccn1 [Compound A-19]
IC50: 14 nM

Cc1cc(-c2ccc(CNc3ncnc(-c4ccc(Cl)cc4)c3F)cc2)ccn1 [Compound A-20]
IC50: 211 nM

Cc1cc(-c2ccc(CNc3ncnc(-c4ccc(Cl)c(Cl)c4)c3F)cc2)ccn1 [Compound A-21]
IC50: 14 nM

Cc1cc(-c2ccc(CNc3ncnc(N4CCc5ccccc5C4)c3F)cc2)ccn1 [Compound A-22]
IC50: 14 nM

Cc1cc(-c2ccc(CNc3ncnc(N4CCc5ccc(F)cc5C4)c3F)cc2)ccn1 [Compound A-23]
IC50: 15 nM

Cc1cc(-c2ccc(CNc3ncnc(N4CCc5c(F)cccc5C4)c3F)cc2)ccn1 [Compound A-24]
IC50: 37 nM

Cc1cc(-c2ccc(CNc3ncnc(N4CCc5c(Br)cccc5C4)c3F)cc2)ccn1 [Compound A-25]
IC50: > 1000 nM

Cc1cc(-c2ccc(CNc3ncnc(N4CCc5ncccc5C4)c3F)cc2)ccn1 [Compound A-26]
IC50: 1.5 nM

Cc1cc(-c2ccc(CN(C)c3ncnc(-c4ccc5ccccc5c4)c3F)cc2)ccn1 [Compound A-27, 5-fluoro-N-methyl-N-(4-(2-methylpyridin-4-yl)benzyl)-6-(naphthalen-2-yl)pyrimidin-4-amine]
IC50: 937 nM

Cc1cc(-c2ccc(C(C)Nc3ncnc(-c4ccc5ccccc5c4)c3F)cc2)ccn1 (stereo not shown) [Compound A-28]
IC50: 17 nM

Cc1cc(-c2ccc(CNc3ncnc(-c4ccc5ccccc5c4)c3F)s2)ccn1 [Compound A-29]
IC50: 577 nM

Cc1cc(-c2ccc(CNc3ncnc(-c4ccc5ccccc5c4)c3F)cn2)ccn1 [Compound A-30]
IC50: 23 nM

Cc1cc(-c2ccc(CNc3ncnc(-c4ccc5ncccc5c4)c3F)cn2)ccn1 [Compound A-31]
IC50: 1 nM

Cc1cc(-c2ccc(CNc3ncnc(N4CCc5ncccc5C4)c3F)cn2)ccn1 [Compound A-32]
IC50: 2 nM

Cc1cc(-c2ncc(CNc3ncnc(-c4ccc5ccccc5c4)c3F)cc2C)ccn1 [Compound A-33]
IC50: 1.4 nM

Cc1cc(-c2ncc(CNc3ncnc(-c4ccc5ncccc5c4)c3F)cc2C)ccn1 [Compound A-34]
IC50: 3 nM

Cc1cc(-c2ncc(CNc3ncnc(-c4ccc5ccccc5c4)c3F)cc2F)ccn1 [Compound A-35]
IC50: 4 nM

Cc1cc(-c2ncc(CNc3ncnc(-c4ccc5ncccc5c4)c3F)cc2F)ccn1 [Compound A-36]
IC50: 0.5 nM

Cc1cc(-c2ccc(CNc3ncnc(-c4ccc5ccccc5c4)c3F)nc2)ccn1 [Compound A-37]
IC50: 2.4 nM

Fc1c(NCc2ccc(-c3ccncc3)cc2)ncnc1-c1ccc2ccccc2c1 [Compound A-38]
IC50: 5 nM

Cn1nccc1-c1ccc(CNc2ncnc(-c3ccc4ccccc4c3)c2F)cc1 [Compound A-39]
IC50: 129 nM

Fc1c(NCc2ccc(-n3ccnc3)cc2)ncnc1-c1ccc2ccccc2c1 [Compound A-40]
IC50: > 1000 nM

Fc1c(NCc2ccc3cnccc3c2)ncnc1-c1ccc2ncccc2c1 [Compound A-41]
IC50: 55 nM

N#Cc1ccc2cc(CNc3ncnc(-c4ccc5ncccc5c4)c3F)ccc2c1 [Compound A-42, 6-((5-fluoro-6-(quinolin-6-yl)pyrimidin-4-ylamino)methyl)-2-naphthonitrile]
IC50: 0.7 nM

NC(=O)c1ccc2cc(CNc3ncnc(-c4ccc5ncccc5c4)c3F)ccc2c1 [Compound A-43, 6-((5-fluoro-6-(quinolin-6-yl)pyrimidin-4-ylamino)methyl)-2-naphthamide]
IC50: 75 nM

N#Cc1ccc2cc(CNc3ncnc(N4CCc5ncccc5C4)c3F)ccc2c1 [Compound A-44]
IC50: 1 nM

Cc1cc(-c2ncc(CNc3ncnc(N4CCc5ncccc5C4)c3F)cc2F)ccn1 [Compound A-45]
IC50: 0.4 nM

Cc1cc(-c2ncc(CNc3ncnc(N4CCc5ncccc5C4)c3F)cc2C)ccn1 [Compound A-46]
IC50: 4.9 nM

Cc1cc(-c2ccc(CNc3ncnc(N4CCc5ncsc5C4)c3F)cc2)ccn1 [Compound A-47]
IC50: 0.94 nM

Cc1cc(-c2ncc(CNc3ncnc(-c4ccc5ncsc5c4)c3F)cc2F)ccn1 [Compound A-49]
IC50: 0.39 nM

Cc1cc(-c2ccc(CNc3ncnc(-c4ccc5ncsc5c4)c3F)cn2)ccn1 [Compound A-50]
IC50: 1 nM

Cc1cc(-c2ncc(CNc3ncnc(-c4ccc5ncsc5c4)c3F)cc2C)ccn1 [Compound A-51]
IC50: 1 nM

Cc1cc(-c2ccc(CNc3ncnc(N4Cc5ccccc5C4)c3F)cc2)ccn1 [Compound A-52]
IC50: 17 nM

Cc1cc(-c2ccc(CNc3ncnc(N4CCc5c(C#N)cccc5C4)c3F)cc2)ccn1 [Compound A-53]
IC50: 89 nM

Cc1cc(-c2ncc(CNc3ncnc(N4CCc5ncsc5C4)c3F)cc2F)ccn1 [Compound A-54]
IC50: 0.67 nM

Cc1cc(-c2ccc(CNc3ncnc(-c4ccc5nncn5c4)c3F)cc2)ccn1 [Compound A-55]
IC50: 3000 nM

Cc1cc(-c2ncc(CNc3ncnc(N4CCc5ncccc5C4)c3F)cc2C#N)ccn1 [Compound A-56]
IC50: 1 nM

Cc1cc(-c2ncc(CNc3ncnc(-c4ccc5ncccc5c4)c3F)cc2C#N)ccn1 [Compound A-57]
IC50: 0.39 nM

Cc1cc(-c2ncc(CNc3ncnc(N4CCn5ncnc5C4)c3F)cc2F)ccn1 [Compound A-58]
IC50: 34 nM

Cc1cc(-c2ccc(CNc3ncnc(N4CCn5c(nnc5C(F)(F)F)C4)c3F)cc2)ccn1 [Compound A-59]
IC50: 230 nM

Cc1cc(-c2ncc(CNc3ncnc(-c4ccc5ncccc5c4)c3F)cn2)ccn1 [Compound A-60]
IC50: 0.81 nM

Cc1cc(-c2ncc(CNc3ncnc(N4CCc5ncccc5C4)c3F)cn2)ccn1 [Compound A-61, 6-(7,8-dihydro-1,6-naphthyridin-6(5H)-yl)-5-fluoro-N-((2-(2-methylpyridin-4-yl)pyrimidin-5-yl)methyl)pyrimidin-4-amine]
IC50: 1.3 nM

Cc1cc(-c2ncc(CNc3ncnc(N4CCc5ncncc5C4)c3F)cc2F)ccn1 [Compound A-62]
IC50: 6.2 nM

Cc1cc(-c2cnc(CNc3ncnc(-c4ccc5ncccc5c4)c3F)cn2)ccn1 [Compound A-63]
IC50: 2 nM

Cc1cc(-c2ccc(CNc3ncnc(-c4ccc5ncccc5c4)c3F)cc2)cc[n+]1[O-] [Compound A-64, 4-(4-((5-fluoro-6-(quinolin-6-yl)pyrimidin-4-ylamino)methyl)phenyl)-2-methylpyridine 1-oxide]
IC50: 16 nM

COc1cc(CNc2ncnc(-c3ccc4ncccc4c3)c2F)cnc1-c1ccnc(C)c1 [Compound A-65]
IC50: 0.44 nM

Fc1c(NCc2ccc(-c3ccnnc3)cc2)ncnc1-c1ccc2ncccc2c1 [Compound A-67]
IC50: 10 nM

O=S1(=O)CCN(c2ccc(CNc3ncnc(-c4ccc5ncccc5c4)c3F)cn2)CC1 [Compound A-68]
IC50: 16 nM

Cc1cc(-c2ncc(CNc3ncnc(C#Cc4cccnc4)c3F)cc2F)ccn1 [Compound A-69, 5-fluoro-N-((3-fluoro-2′-methyl-2,4′-bipyridin-5-yl)methyl)-6-(pyridin-3-ylethynyl)pyrimidin-4-amine]
IC50: 73 nM
